Read-outs that look alike come from different tables or passages of the source.
Tests used:
TNFα = assay: Cytokine response by ELISA, TNFα; assay type: cell-based, human
Experimental: (§1) Dexamethasone is a synthetic glucocorticoid that suppresses LPS-induced pro-inflammatory cytokine expression and was used as a control (Abraham, Lawrence et al. 2006). Supernatants were collected for human cytokine ELISAs and the manufacturer's protocol was followed to assess the cytokine response. Cells remaining after the supernatant collection were tested for relative viability by Alamar Blue cytotoxicity assay as previously described.

[1] = test system: PMA-differentiated THP-1 cells; assay: Alamar Blue cell viability assay, THP-1; assay type: cell-based, human; settings: THP-1 cells, 4 h with LPS, mean ± SD
Experimental: THP-1 cells were maintained in RPMI 1640 medium supplemented with 10% heat-inactivated FBS and 1% penicillin/streptomycin (complete culture medium) at 37° C. with 5% CO2 supplemented. Cell concentrations were adjusted to desired concentrations for each experiment by centrifugation at 500×g for 5 min and resuspended in complete culture medium with 100 nM of PMA. Cell concentration was adjusted to 5×10^5 cells/ml for all assays with the exception of 2.5×10^5 cells/ml were used for NF-κB nuclear translocation assay. Cells were seeded onto 96-, 24-, or 12-well plates and incubated for 48 to 72 h to allow for differentiation. Cells were washed with serum-free RPMI 1640 medium before each experiment to remove undifferentiated cells. […] Cells were seeded into tissue culture plates at 10% confluence and grown to 80% confluence within 72 h. For live cell microscopy, 1×10^5 cells/ml were seeded into 35 mm glass-bottom (MatTek) dishes 24 h prior to imaging. For luciferase assays, 1.2×10^5 cells/well were seeded into 24-well tissue culture-treated plates.
Following treatment, the relative cell viability was measured by Alamar Blue assay. For Alamar Blue assays, supernatants were replaced with culture medium containing 1× Alamar Blue reagent and incubated overnight. Cell viability was assessed by measuring relative fluorescent units (RFU) on the SpectraMax M2e microplate reader (Molecular Devices Inc., Sunnyvale, Calif., USA) at Ex 560 nm and Em 590 nm. The results were expressed as a percentage relative to LPS alone control cells. The effects of the vehicle control, DMSO, on cell viability were also assessed.
as §1

[2] = test system: Trypanosoma cruzi Tulahuen cells expressing beta-galactosidase; assay: T. cruzi intracellular assay (beta-galactosidase, L6 host cells); settings: Trypanosoma cruzi, TULAHUEN, read-out: IC50 TC-I, Table 3A; weighted means of two or more independent trials
[3] = test system: rat skeletal muscle cell line, L6; assay: cells; assay type: cell-based
[4] = test system: Trypanosoma brucei brucei 427 cells; assay: T. brucei culture and assay (PrestoBlue); assay type: cell-based; settings: for IC50: mean of 2(+) independent trials, read-out: IC50 T. brucei
[5] = test system: Leishmania amazonensis promastigotes expressing beta-lactamase; assay: microbe, parasite or virus in culture; assay type: cell-based; settings: for IC50: Leishmania amazonensis
[6] = test system: Trypanosoma cruzi Tulahuen trypomastigotes; assay: T. cruzi extracellular assay (CellTiter Glo); assay type: cell-based; settings: for Selectivity L6/Tc: T. cruzi IC50 from extracellular assay (^b); for Selectivity L6/Tc (T. cruzi value from extracellular assay): L6 IC50 / T. cruzi IC50 (extracellular assay); for IC50: Trypanosoma cruzi, TULAHUEN
[7] = Homo sapiens, LPS-stimulated THP-1 cells, mean ± SD, read-out: Average % TNF-α Inhibition
[8] = Rattus norvegicus, Table 1, read-out: IC50 Toxicity (L6)
[9] = Table 2, L6 mammalian cells, read-out: IC50 Toxicity (L6)
[10] = Table 2, L6 IC50 / L. amazonensis IC50
[11] = Table 1, ^b extracellular T. cruzi assay, read-out: IC50 T. cruzi
[12] = Table 2, extracellular assay, read-out: IC50 T. cruzi (footnote b: Extracellular T. cruzi assay)
[13] = Table 2, L6 IC50 / T. brucei IC50

Compound: O=C1/C(=C/c2ccc(CO)o2)Oc2ccccc21 [Aurone 1]
- inhibition at 40 µM (TNFα; [7]): 51.8 ± 13.5%
- inhibition at 80 µM (TNFα; Homo sapiens, LPS-stimulated THP-1 cells, 80 μM, mean ± SD, read-out: Average % TNF-α Inhibition): 93.8 ± 0.7%

Compound: O=C1/C(=C/c2ccccc2O)Oc2ccccc21 [Aurone 4, (Z)-2-(2-hydroxybenzylidene)benzofuran-3(2H)-one]
- inhibition at 40 µM (TNFα; [7]): 15.4 ± 5.3%

Compound: O=C1/C(=C/c2cccc(O)c2)Oc2ccccc21 [Aurone 5, (Z)-2-(3-hydroxybenzylidene)benzofuran-3(2H)-one]
- Average % TNF-α Inhibition (TNFα; LPS-stimulated THP-1 cells, 20, 25 and 40 μM (one cell for all concentrations)): No Inhibitions
- Average % Viability (4 h with LPS) ([1]; 20 μM): 94.6 ± 1.2%
- Average % Viability (4 h with LPS) ([1]; 25 μM): 92.9 ± 1.4%
- Average % Viability (4 h with LPS) ([1]; 40 μM): 90.9 ± 0.6%

Compound: O=C1/C(=C/c2ccc(O)cc2)Oc2ccccc21 [Aurone 6, (Z)-2-(4-hydroxybenzylidene)benzofuran-3(2H)-one]
- Average % TNF-α Inhibition (TNFα; LPS-stimulated THP-1 cells, 20 and 40 μM (one cell for all concentrations)): No Inhibitions
- Average % Viability (4 h with LPS) ([1]; 20 μM): 99.8 ± 1.5%
- Average % Viability (4 h with LPS) ([1]; 40 μM): 98.5 ± 0.1%

Compound: COc1cc(/C=C2\Oc3ccccc3C2=O)ccc1O [Aurone 7, (Z)-2-(4-hydroxy-3-methoxybenzylidene)benzofuran-3(2H)-one]
- inhibition at 40 µM (TNFα; [7]): 10.4 ± 4.7%

Compound: COc1ccc(/C=C2\Oc3ccccc3C2=O)cc1O [Aurone 9, (Z)-2-(3-hydroxy-4-methoxybenzylidene)benzofuran-3(2H)-one]
- inhibition at 40 µM (TNFα; [7]): 14.9 ± 7.2%

Compound: O=C1/C(=C/c2cc(Br)cc(Br)c2O)Oc2ccccc21 [Aurone 3012, (Z)-2-(3,5-dibromo-2-hydroxybenzylidene)benzofuran-3(2H)-one]
- IC50 [2]: > 50 µM
- IC50 [3, 8]: > 100 µM
- IC50 ([3]; Rattus norvegicus, Table 3A, weighted means of two or more independent trials, read-out: IC50 L6): > 100 µM
- IC50 [3, 9]: > 100 µM
- IC50 ([4]; Table 2): > 50 µM
- IC50 ([4]; Trypanosoma brucei, Table 1): > 50 µM
- IC50 ([5]; read-out: IC50 L. amaz.): 1.21 µM
- Selectivity L6/La ([5]; Table 1): >82.64
- Selectivity L6/La [5, 10]: >82.64
- Selectivity L6/Tc ([6]; Table 1): >2.49
- Selectivity L6/Tc (T. cruzi value from extracellular assay) ([6]; Table 2): >2.49
- IC50 [6, 11]: 40.1 µM
- IC50 [6, 12]: 40.1 µM

Compound: Cc1ccc2c(c1)C(=O)/C(=C/c1ccc(C#N)cc1)O2 [Aurone 4001, (Z)-4-((5-methyl-3-oxobenzofuran-2(3H)-ylidene)methyl)benzonitrile]
- IC50 [3, 8]: 76.2 µM
- Selectivity L6/Tb ([4]; Table 1): 28.66
- Selectivity L6/Tb [4, 13]: 28.66
- IC50 ([4]; Trypanosoma brucei, Table 1): 2.66 µM
- IC50 ([5]; read-out: IC50 L. amaz.): 38.4 µM
- Selectivity L6/La ([5]; Table 1): 1.98
- Selectivity L6/La [5, 10]: 1.98
- Selectivity L6/Tc ([6]; Table 1): 2.40
- Selectivity L6/Tc (T. cruzi value from extracellular assay) ([6]; Table 2): 2.40
- IC50 [6, 11]: 31.7 µM
- IC50 [6, 12]: 31.7 µM
- melting point: 148 to 152 °C

Compound: Cc1ccc2c(c1)C(=O)/C(=C/c1ccc(Br)cc1)O2 [Aurone 4002, (Z)-2-(4-bromobenzylidene)-5-methylbenzofuran-3(2H)-one]
- IC50 [3, 8]: > 100 µM
- Selectivity L6/Tb ([4]; Table 1): >2.34
- IC50 ([4]; Trypanosoma brucei, Table 1): 42.8 µM
- IC50 ([5]; read-out: IC50 L. amaz.): 19.7 µM
- Selectivity L6/La ([5]; Table 1): >5.07
- IC50 [6, 11]: > 50 µM
- melting point: 171 to 175 °C

Compound: COc1ccc(/C=C2\Oc3ccc(C)cc3C2=O)c(OC)c1OC [Aurone 4004, (Z)-5-methyl-2-(2,3,4-trimethoxybenzylidene)benzofuran-3(2H)-one]
- IC50 [3, 8]: 43.9 µM
- Selectivity L6/Tb ([4]; Table 1): 2.23
- Selectivity L6/Tb [4, 13]: 2.23
- IC50 ([4]; Trypanosoma brucei, Table 1): 19.7 µM
- IC50 ([5]; read-out: IC50 L. amaz.): 4.04 µM
- Selectivity L6/La ([5]; Table 1): 10.86
- Selectivity L6/La [5, 10]: 10.86
- IC50 [6, 11]: > 50 µM
- IC50 [6, 12]: > 50 µM
- melting point: 74 to 78 °C

Compound: Cc1ccc2c(c1)C(=O)/C(=C/c1ccc(O)cc1)O2 [Aurone 4005, (Z)-2-(4-hydroxybenzylidene)-5-methylbenzofuran-3(2H)-one]
- IC50 [3, 8]: > 100 µM
- IC50 [3, 9]: > 100 µM
- IC50 ([4]; Table 2): > 50 µM
- IC50 ([4]; Trypanosoma brucei, Table 1): > 50 µM
- IC50 ([5]; read-out: IC50 L. amaz.): 3.58 µM
- Selectivity L6/La ([5]; Table 1): >27.93
- Selectivity L6/La [5, 10]: >27.93
- IC50 [6, 11]: > 50 µM
- IC50 [6, 12]: > 50 µM
- melting point: 228 to 231 °C

Compound: Cc1ccc2c(c1)C(=O)/C(=C/c1ccccc1C(F)(F)F)O2 [Aurone 4006, (Z)-5-methyl-2-(2-(trifluoromethyl)benzylidene)benzofuran-3(2H)-one]
- IC50 [3, 8]: 72.9 µM
- Selectivity L6/Tb ([4]; Table 1): 2.41
- Selectivity L6/Tb [4, 13]: 2.41
- IC50 ([4]; Trypanosoma brucei, Table 1): 30.2 µM
- IC50 ([5]; read-out: IC50 L. amaz.): 9.7 µM
- Selectivity L6/La ([5]; Table 1): 7.52
- Selectivity L6/La [5, 10]: 7.52
- Selectivity L6/Tc ([6]; Table 1): 4.62
- Selectivity L6/Tc (T. cruzi value from extracellular assay) ([6]; Table 2): 4.62
- IC50 [6, 11]: 15.8 µM
- IC50 [6, 12]: 15.8 µM
- melting point: 121 to 124 °C

Compound: O=C1/C(=C/c2ccc(C(F)(F)F)cc2)Oc2ccc(Br)cc21 [Aurone 6001, (Z)-5-bromo-2-(4-(trifluoromethyl)benzylidene)benzofuran-3(2H)-one]
- IC50 [3, 8]: > 100 µM
- IC50 [3, 9]: > 100 µM
- IC50 ([4]; Table 2): > 50 µM
- IC50 ([4]; Trypanosoma brucei, Table 1): > 50 µM
- IC50 ([5]; read-out: IC50 L. amaz.): 7.29 µM
- Selectivity L6/La ([5]; Table 1): >13.72
- Selectivity L6/La [5, 10]: >13.72
- IC50 [6, 11]: > 50 µM
- IC50 [6, 12]: > 50 µM
- melting point: 120 to 125 °C

Compound: O=C1/C(=C/c2ccc(Br)cc2)Oc2ccc(Br)cc21 [Aurone 6002, (Z)-5-bromo-2-(4-bromobenzylidene)benzofuran-3(2H)-one]
- IC50 [3, 8]: > 100 µM
- Selectivity L6/Tb ([4]; Table 1): >2.38
- IC50 ([4]; Trypanosoma brucei, Table 1): 42 µM
- IC50 ([5]; read-out: IC50 L. amaz.): 11 µM
- Selectivity L6/La ([5]; Table 1): >9.07
- IC50 [6, 11]: > 50 µM
- melting point: 126 to 130 °C

Compound: COc1cc(OC)c2c(c1)O/C(=C\c1ccc(C#N)cc1)C2=O [Aurone 7002, (Z)-4-((4,6-dimethoxy-3-oxobenzofuran-2(3H)-ylidene)methyl)benonitrile]
- IC50 [3, 8]: 82.5 µM
- IC50 ([4]; Table 2): > 50 µM
- IC50 ([4]; Trypanosoma brucei, Table 1): > 50 µM
- IC50 ([5]; read-out: IC50 L. amaz.): 2.08 µM
- IC50 ([5]; read-out: IC50 L. amaz. (footnote c: value obtained from one trial)): 2.08 µM
- Selectivity L6/La ([5]; Table 1): 39.68
- Selectivity L6/La [5, 10]: 39.68
- IC50 [6, 11]: > 50 µM
- IC50 [6, 12]: > 50 µM
- melting point: 220 to 223 °C

Compound: Cc1cccc(/C=C2\Oc3ccccc3C2=O)c1 [Aurone 9064, (Z)-2-(3-methylbenzylidene)benzofuran-3(2H)-one]
- IC50 [3, 8]: 79.9 µM
- IC50 ([4]; Trypanosoma brucei, Table 1): 32.6 µM
- IC50 ([5]; read-out: IC50 L. amaz.): 4.4 µM
- IC50 [6, 11]: 18.4 µM
- IC50 [6, 12]: 18.4 µM
- melting point: 74 to 75 °C

Source: patent publication US20200399238A1, “THERAPEUTIC AURONES” (MIDDLE TENNESSEE STATE UNIVERSITY, priority 2016, published 2020)
